Consider one molecule from patent US10272056B2, “Treatment for mitochondrial diseases” (The George Washington University a Congressionally …, priority 2015, dated 2019).

Format in all cases: cell-based
Series [1] relates to E17.5 hippocampal neurons. The experiment in a line: Neuronal stage 3 frequency with chloramphenicol and NaBt. An excerpt: FIG. 16A-16I are images from microscopy and a graph showing that Pre-treatment of E17.5 hippocampal neurons with NaBt protects against chloramphenicol-induced loss of neuronal differentiation. (A-D) Confocal micrographs of E17.5 hippocampal neurons exposed to different concentrations of chloramphenicol at 2DIV and labeled with anti tubulin antibody (red) and nuclear counterstain DAPI (blue) at 3DIV. Scale bar represents 10 μm. (E-H) Confocal micrographs of E17.5 hippocampal neurons treated with NaBt (2 mM) at 1DIV prior to exposure to different concentrations of chloramphenicol at 2DIV and labeled with anti tubulin antibody (red) and nuclear counterstain DAPI (blue) at 3DIV. Scale bar represents 10 μm. (I) Graph of E17.5 β-III^+ hippocampal neurons at the neuronal stage 3. Mean±S.D. (n=250 cells; compared to untreated control *p=0.0001; compared to the corresponding non-NaBt treated sample **p=0.0001; compared to non-NaBt treated cells exposed to Cm at 30 μM‡p=0.007).
The consequences of chloramphenicol exposure on untreated or NaBt-treated E17.5 hippocampal neurons was examined. At 1DIV, dissociated E17.5 hippocampal neurons were switched to differentiation medium in the absence or presence of NaBt (2 mM) for 24 hours before being treated with increasing concentrations of chloramphenicol (0, 15, 30, and 60 μM) for 24 hours. At 3DIV, their phenotypic differentiation was examined by immunocytochemistry using an antibody against the pan-neuronal marker β-III tubulin and quantified the percent of neurons having reached the developmental stage 3 for each experimental condition. As expected, only half of untreated neurons reached stage 3 in the absence of NaBt, while more than 90% of NaBt-treated neurons achieved such degree of differentiation, thereby forming an elaborate neuritic network (FIGS. 16A, E, and I).

Series [2] deals with PC12-ND6 cells. The experiment in a line: NaBt dose-dependent acetylation of nuclear proteins (anti-acetylated Lys immunocytochemistry). The conditions noted are these: three days, 2, 5 and 10 mM tested. An excerpt: (§1) FIG. 4A-4E are images from microscopy and graphs showing NaBt dose-dependent acetylation and cellular toxicity in PC12-ND6 cells and embryonic E17.5 hippocampal neurons. (A) Confocal micrographs of PC12-ND6 cells (referred to as ND6) grown in the absence or presence of NaBt for three days and labeled with an anti-acetylated Lys antibody (AcLys; green). Scale bar represents 10 μm. […] Results are expressed as relative fluorescence intensity±S.D. (n=250 cells per NaBt concentration; * p=0.0001). (C) Effect of NaBt on PC12-ND6 cell viability. […] Mean±SEM (n=250 cells for each experimental condition; * p=0.0001). (D) Confocal micrographs of NaBt dose-dependent acetylation in E17.5 hippocampal neurons (AcLys; green). Scale bar represents 10 μm.
(§2) Sodium butyrate increases protein acetylation in a dose-dependent manner without inducing cellular toxicity. A dose response analysis was performed to determine the optimal concentration of sodium butyrate (NaBt) for inducing maximal acetylation levels with minimal cellular toxicity. PC12-ND6 cells were treated with different concentrations of NaBt (2 mM, 5 mM, and 10 mM) for three days before assessing the degree of acetylated lysine residues by immunocytochemistry and cell viability by live-cell confocal microscopy using the Nuclear-ID™ stain.

Series [3] relates to E17.5 hippocampal neurons. Nature of the series: Mitochondrial mass in neurons (mito-GFP, quantitative immunohistochemistry COXVα/tubulin). The conditions noted are these: NaBt-treated E17.5 neurons; control 7%. An excerpt: FIG. 7A-7F show images from microscopy and graphs showing NaBt increases mitochondrial mass. (A) Live cell confocal microscopy of E17.5 hippocampal neurons; high magnification in inset; scale bar=5 (B) Quantitative analysis of the mitochondrial biomass in E17.5 neurons using an anti-CoxVα antibody; *p<0.001. (C) Live cell confocal microscopy of PC12-ND6 cells; high magnification in inset; scale bar=5 (D) Flow cytometric analysis of mitochondrial mass; *p<0.001. (E) Confocal microscopy of E17.5 brains from E12.5 pregnant dams treated with PBS (sham) or NaBt; scale bar=20 (F) Quantitative analysis of mitochondrial mass; *p<0.001.
Experimental approaches. Five distinct molecular tools were used to investigate mitochondrial biogenesis: 1) the mitochondrial-specific dyes, MitoTracker® Green (MTG) and MitoTracker® Red (MTR); 2) the mito-GFP or mito-dsRed vector to fluorescently label mitochondria; 3) antibodies against mtDNA, COXVα, or SOD2; 4) the fluorescent PicoGreen® dye labeling mtDNA; and 5) quantitative PCR to determine mtDNA copy number.
The effect of NaBt was investigated in embryonic neuronal progenitor cells, E17.5 hippocampal neurons, which were transfected with the mito-GFP vector and then exposed to various concentrations of NaBt. […] Therefore, all subsequent treatment of E17.5 hippocampal neurons with NaBt was performed in the presence of 2 mM. […]

Series [4] relates to PC12-ND6 cells. The experiment in a line: Cell viability by live-cell confocal microscopy (Nuclear-ID stain). The conditions noted are these: 5 mM NaBt, three days.
Source text: as §1, §2

Series [5] has as its system histones H2B, H3 and H4 proteins. Nature of the series: Acetylation of specific lysine residues of histones (immunocytochemistry). To be noted: NaBt 5 mM, three days, PC12-ND6 cells. On the procedure:
PC12-ND 6 cells were treated with NaBt (5 mM) for three days before performing immunocytochemistry to evaluate the acetylation status of lysine residues of key histone proteins, as listed on top of each confocal micrograph. Left panels illustrate representative pictures of PC12-ND6 cells grown in the absence (control) or presence of NaBt for three days and labeled with specific acetylated Lys antibody (green) and DAPI as a nuclear label (blue). Scale bar represents 10 μm. The right panels show the graph for each quantification of acetylated lysine residue for key histone proteins. Results are expressed as relative fluorescence intensity±S.D. (1000 cells per condition; n=3; * p=0.0001).
Sodium butyrate induces epigenetic reprogramming by acetylating key amino acid residues of histone proteins H2B, H3 and H4. Histone acetylation, which is mediated by two groups of enzymes, histone acetyltransferases (HATs) and histone deacetylases (HDAC), promote gene expression responsible to induce differentiation of neural stem cells and neural progenitor cells. Epigenetic regulators, such as the NaBt and its derivatives, inhibit the activity of HDAC enzymes, thereby favoring HAT activity and inducing an open chromatin structure to allow easy access to the DNA via histone acetylation. Thus, which lysine residues of key histone proteins were targeted by NaBt ws investigated. The lysine residue K27 of the histone H3 protein was targeted, as it is known to be acetylated to favor expression of lineage-specific genes associated with neural differentiation of progenitors and stem cells. Immunocytochemistry results confirmed that NaBt induced a 210% increased acetylation of the K27 residue of H3 (FIG. 5). Analysis was extended to additional acetylation marks, such as the lysine residue K9 of the histone H3, the K12 residue of histone H4 […] are important indicators of active enhancer elements. […] Thus, NaBt induces a specific epigenetic reprogramming of neural-like progenitor PC12-ND6 cell by inducing a series of acetylation marks to confer transcriptional competence.

Regarding `CCCC(=O)[O-].[Na+]` [NaBt, sodium butyrate], the “frequency of advanced neuronal stage with NaBt pre-treatment” value in series [1] (NaBt 2 mM prior to chloramphenicol up to 60 μM) was “sustained the frequency of advanced neuronal stage”. Moreover, the “percent of neurons reaching stage 3” value in series [1] (NaBt 2 mM, no chloramphenicol, 3DIV) is “more than 90%”. The “NaBt concentration showing maximal acetylation levels of nuclear proteins” value with PC12-ND6 cells [2] was found to be 5 mM. The “mitochondria as percent of the cell volume” value in series [3] was found to be 18%. Further, in the series with PC12-ND6 cells [4], the cell death entry is recorded as “negligible cell death”. In series [5], the “acetylation of histone H2B” value is given as “hyperacetylated”, the “increased acetylation of H3K9” value turned out to be 250%, the “increased acetylation of H4K12” value is listed as 124% and the “increased acetylation of the K27 residue of H3” value is 210%.
